Assays:
[1] = test system: ABL1 (human), P00519 [F317I]; test: KINOMEscan competition binding; conditions: compound 10.0 µM
[2] = test system: ABL1 (human), P00519 [F317L]; test: KINOMEscan competition binding; conditions: compound 10.0 µM
BMP2K (human) = BMP2K (human) (UniProt Q9NSY1); test: KINOMEscan competition binding; conditions: compound 10.0 µM
CAMKK2 (human) = CAMKK2 (human) (UniProt Q96RR4); test: KINOMEscan competition binding; conditions: compound 10.0 µM
CHEK1 (human) = CHEK1 (human) (UniProt O14757); test: KINOMEscan competition binding; conditions: compound 10.0 µM
DAPK3 (human) = DAPK3 (human) (UniProt O43293); test: KINOMEscan competition binding; conditions: compound 10.0 µM
DCLK3 (human) = DCLK3 (human) (UniProt Q9C098); test: KINOMEscan competition binding; conditions: compound 10.0 µM
Sequence of DCLK3 (human) (Q9C098 whole entry, looked up): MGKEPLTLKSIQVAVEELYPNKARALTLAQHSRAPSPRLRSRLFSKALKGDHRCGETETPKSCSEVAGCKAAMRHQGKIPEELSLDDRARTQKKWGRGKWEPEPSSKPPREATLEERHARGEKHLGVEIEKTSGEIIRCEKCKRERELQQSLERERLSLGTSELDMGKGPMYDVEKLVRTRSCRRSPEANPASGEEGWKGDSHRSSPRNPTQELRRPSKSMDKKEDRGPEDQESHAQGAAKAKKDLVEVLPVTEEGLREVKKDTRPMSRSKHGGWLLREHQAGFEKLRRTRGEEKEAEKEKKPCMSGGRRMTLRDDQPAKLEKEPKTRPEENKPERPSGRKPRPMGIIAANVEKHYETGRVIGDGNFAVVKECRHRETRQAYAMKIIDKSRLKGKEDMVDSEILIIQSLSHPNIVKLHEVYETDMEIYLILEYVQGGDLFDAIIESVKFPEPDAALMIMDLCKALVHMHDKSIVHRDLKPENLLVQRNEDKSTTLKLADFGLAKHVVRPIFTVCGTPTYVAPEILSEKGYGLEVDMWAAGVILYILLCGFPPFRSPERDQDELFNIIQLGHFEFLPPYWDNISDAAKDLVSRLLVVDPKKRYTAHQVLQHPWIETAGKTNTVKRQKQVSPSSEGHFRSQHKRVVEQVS

[3] = test system: EGFR (human), P00533 [A750P; 747-749 del]; test: KINOMEscan competition binding; conditions: compound 10.0 µM
FER (human) = FER (human) (UniProt P16591); test: KINOMEscan competition binding; conditions: compound 10.0 µM
FES (human) = FES (human) (UniProt P07332); test: KINOMEscan competition binding; conditions: compound 10.0 µM
[4] = test system: FLT3 (human), P36888 [D835H]; test: KINOMEscan competition binding; conditions: compound 10.0 µM
[5] = test system: FLT3 (human), P36888 [D835Y]; test: KINOMEscan competition binding; conditions: compound 10.0 µM
FRK (human) = FRK (human) (UniProt P42685); test: KINOMEscan competition binding; conditions: compound 10.0 µM
GAK (human) = GAK (human) (UniProt O14976); test: KINOMEscan competition binding; conditions: compound 10.0 µM
Sequence of GAK (human) (O14976 whole entry, looked up): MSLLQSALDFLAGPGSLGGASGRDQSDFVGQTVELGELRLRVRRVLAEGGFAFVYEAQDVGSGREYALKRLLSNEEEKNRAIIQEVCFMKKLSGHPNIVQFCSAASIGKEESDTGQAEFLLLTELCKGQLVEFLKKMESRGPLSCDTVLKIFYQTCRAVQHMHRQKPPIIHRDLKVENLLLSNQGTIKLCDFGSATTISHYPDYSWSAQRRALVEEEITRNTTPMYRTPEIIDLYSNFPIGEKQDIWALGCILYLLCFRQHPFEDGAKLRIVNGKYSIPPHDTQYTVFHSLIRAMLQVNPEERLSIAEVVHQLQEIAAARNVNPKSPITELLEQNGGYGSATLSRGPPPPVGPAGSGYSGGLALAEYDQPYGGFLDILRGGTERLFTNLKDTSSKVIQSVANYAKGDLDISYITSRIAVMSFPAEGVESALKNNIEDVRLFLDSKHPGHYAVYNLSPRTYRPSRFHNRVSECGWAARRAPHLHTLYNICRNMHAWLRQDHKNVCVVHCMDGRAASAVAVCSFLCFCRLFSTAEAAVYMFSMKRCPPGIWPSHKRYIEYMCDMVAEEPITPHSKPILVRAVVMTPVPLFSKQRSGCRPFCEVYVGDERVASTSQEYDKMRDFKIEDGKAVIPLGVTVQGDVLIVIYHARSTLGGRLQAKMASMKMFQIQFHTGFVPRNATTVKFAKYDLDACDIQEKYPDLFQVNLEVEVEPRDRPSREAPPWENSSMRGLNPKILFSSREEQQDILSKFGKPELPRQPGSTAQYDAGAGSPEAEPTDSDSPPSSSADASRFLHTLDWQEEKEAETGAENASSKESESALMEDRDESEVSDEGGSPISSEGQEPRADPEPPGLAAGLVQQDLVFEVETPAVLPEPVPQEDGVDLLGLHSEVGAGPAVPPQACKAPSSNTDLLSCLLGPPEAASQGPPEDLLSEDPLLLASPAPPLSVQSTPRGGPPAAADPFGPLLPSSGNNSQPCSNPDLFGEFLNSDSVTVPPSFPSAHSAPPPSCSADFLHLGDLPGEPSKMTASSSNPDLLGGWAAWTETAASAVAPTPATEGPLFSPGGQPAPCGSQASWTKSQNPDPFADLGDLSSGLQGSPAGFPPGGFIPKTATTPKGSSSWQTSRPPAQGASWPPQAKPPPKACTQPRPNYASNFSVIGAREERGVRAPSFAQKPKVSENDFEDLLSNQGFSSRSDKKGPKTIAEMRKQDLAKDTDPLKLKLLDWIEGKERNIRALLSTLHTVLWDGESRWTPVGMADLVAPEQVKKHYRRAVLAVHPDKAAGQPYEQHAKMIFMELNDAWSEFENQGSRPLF

MERTK (human) = MERTK (human) (UniProt Q12866); test: KINOMEscan competition binding; conditions: compound 10.0 µM
NEK5 (human) = NEK5 (human) (UniProt Q6P3R8); test: KINOMEscan competition binding; conditions: compound 10.0 µM
NEK9 (human) = NEK9 (human) (UniProt Q8TD19); test: KINOMEscan competition binding; conditions: compound 10.0 µM
PIP4K2B (human) = PIP4K2B (human) (UniProt P78356); test: KINOMEscan competition binding; conditions: compound 10.0 µM
Sequence of PIP4K2B (human) (P78356 whole entry, looked up): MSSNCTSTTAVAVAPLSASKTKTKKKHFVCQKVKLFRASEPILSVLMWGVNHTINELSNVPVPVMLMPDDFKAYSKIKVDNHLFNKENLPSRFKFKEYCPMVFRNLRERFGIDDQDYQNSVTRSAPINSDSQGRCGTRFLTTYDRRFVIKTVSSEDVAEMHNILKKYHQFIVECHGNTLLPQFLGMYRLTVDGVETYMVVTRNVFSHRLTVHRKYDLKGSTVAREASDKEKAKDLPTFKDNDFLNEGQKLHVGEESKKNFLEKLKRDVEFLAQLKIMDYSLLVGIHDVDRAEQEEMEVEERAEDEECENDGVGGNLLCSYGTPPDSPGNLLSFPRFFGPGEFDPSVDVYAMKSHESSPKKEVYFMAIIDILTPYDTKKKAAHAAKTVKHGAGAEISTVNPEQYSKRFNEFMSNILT

PLK1 (human) = PLK1 (human) (UniProt P53350); test: KINOMEscan competition binding; conditions: compound 10.0 µM
Sequence of PLK1 (human) (P53350 whole entry, looked up): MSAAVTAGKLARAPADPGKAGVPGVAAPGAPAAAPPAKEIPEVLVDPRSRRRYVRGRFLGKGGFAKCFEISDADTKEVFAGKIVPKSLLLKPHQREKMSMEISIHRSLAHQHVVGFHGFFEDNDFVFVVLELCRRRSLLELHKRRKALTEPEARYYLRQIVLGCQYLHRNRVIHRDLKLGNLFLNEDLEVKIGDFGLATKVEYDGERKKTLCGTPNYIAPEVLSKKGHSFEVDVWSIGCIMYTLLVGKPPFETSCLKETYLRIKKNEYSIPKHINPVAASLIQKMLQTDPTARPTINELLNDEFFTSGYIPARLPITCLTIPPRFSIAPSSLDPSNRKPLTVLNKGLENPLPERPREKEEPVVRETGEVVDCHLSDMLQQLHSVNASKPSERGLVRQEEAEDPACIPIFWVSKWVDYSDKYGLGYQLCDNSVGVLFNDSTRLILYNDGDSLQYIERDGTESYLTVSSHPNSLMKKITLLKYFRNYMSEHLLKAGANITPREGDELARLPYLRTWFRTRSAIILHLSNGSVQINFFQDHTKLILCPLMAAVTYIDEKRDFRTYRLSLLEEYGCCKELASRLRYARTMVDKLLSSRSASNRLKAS

PLK3 (human) = PLK3 (human) (UniProt Q9H4B4); test: KINOMEscan competition binding; conditions: compound 10.0 µM
PTK2 (human) = PTK2 (human) (UniProt Q05397); test: KINOMEscan competition binding; conditions: compound 10.0 µM
Sequence of PTK2 (human) (Q05397 whole entry, looked up): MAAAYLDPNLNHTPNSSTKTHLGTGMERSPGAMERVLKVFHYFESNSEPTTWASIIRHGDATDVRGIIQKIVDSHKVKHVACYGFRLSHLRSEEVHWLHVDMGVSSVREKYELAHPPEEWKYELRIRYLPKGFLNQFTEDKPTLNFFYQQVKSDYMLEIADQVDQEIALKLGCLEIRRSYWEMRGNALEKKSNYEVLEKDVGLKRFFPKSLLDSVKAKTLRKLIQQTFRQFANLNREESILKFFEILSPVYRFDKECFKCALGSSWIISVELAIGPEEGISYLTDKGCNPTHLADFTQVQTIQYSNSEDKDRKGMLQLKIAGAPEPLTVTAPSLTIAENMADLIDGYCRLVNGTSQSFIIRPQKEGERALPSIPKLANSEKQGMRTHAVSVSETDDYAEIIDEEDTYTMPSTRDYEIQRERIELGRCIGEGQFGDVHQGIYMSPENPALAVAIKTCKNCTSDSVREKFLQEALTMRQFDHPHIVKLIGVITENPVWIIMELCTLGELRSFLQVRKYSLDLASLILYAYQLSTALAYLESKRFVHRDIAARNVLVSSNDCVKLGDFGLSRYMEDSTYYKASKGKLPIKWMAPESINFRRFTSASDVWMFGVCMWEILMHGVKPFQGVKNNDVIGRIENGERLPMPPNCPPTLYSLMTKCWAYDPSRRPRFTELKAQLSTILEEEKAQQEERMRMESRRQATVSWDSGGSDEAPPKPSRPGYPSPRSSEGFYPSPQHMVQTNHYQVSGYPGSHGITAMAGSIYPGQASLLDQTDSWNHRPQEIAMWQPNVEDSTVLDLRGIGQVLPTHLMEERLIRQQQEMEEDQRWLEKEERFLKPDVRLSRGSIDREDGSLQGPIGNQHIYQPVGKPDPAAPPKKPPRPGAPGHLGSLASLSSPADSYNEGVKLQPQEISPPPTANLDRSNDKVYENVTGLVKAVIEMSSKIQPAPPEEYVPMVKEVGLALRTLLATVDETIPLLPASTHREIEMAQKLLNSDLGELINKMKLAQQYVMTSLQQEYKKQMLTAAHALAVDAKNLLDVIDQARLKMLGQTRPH

PTK2B (human) = PTK2B (human) (UniProt Q14289); test: KINOMEscan competition binding; conditions: compound 10.0 µM
RIOK1 (human) = RIOK1 (human) (UniProt Q9BRS2); test: KINOMEscan competition binding; conditions: compound 10.0 µM
RPS6KA1 KD2 (human) = RPS6KA1 KD2 (human) (UniProt Q15418); test: KINOMEscan competition binding; conditions: compound 10.0 µM
RPS6KA6 KD2 (human) = RPS6KA6 KD2 (human) (UniProt Q9UK32); test: KINOMEscan competition binding; conditions: compound 10.0 µM
SIK1 (human) = SIK1 (human) (UniProt P57059); test: KINOMEscan competition binding; conditions: compound 10.0 µM
SIK2 (human) = SIK2 (human) (UniProt Q9H0K1); test: KINOMEscan competition binding; conditions: compound 10.0 µM
SLK (human) = SLK (human) (UniProt Q9H2G2); test: KINOMEscan competition binding; conditions: compound 10.0 µM
STK10 (human) = STK10 (human) (UniProt O94804); test: KINOMEscan competition binding; conditions: compound 10.0 µM
STK33 (human) = STK33 (human) (UniProt Q9BYT3); test: KINOMEscan competition binding; conditions: compound 10.0 µM
TNK2 (human) = TNK2 (human) (UniProt Q07912); test: KINOMEscan competition binding; conditions: compound 10.0 µM
TTK (human) [6] = target: TTK (human) (UniProt P33981); test: KINOMEscan competition binding; conditions: for kinase still bound, per cent of control: compound 10.0 µM
Sequence of TTK (human) (P33981 whole entry, looked up): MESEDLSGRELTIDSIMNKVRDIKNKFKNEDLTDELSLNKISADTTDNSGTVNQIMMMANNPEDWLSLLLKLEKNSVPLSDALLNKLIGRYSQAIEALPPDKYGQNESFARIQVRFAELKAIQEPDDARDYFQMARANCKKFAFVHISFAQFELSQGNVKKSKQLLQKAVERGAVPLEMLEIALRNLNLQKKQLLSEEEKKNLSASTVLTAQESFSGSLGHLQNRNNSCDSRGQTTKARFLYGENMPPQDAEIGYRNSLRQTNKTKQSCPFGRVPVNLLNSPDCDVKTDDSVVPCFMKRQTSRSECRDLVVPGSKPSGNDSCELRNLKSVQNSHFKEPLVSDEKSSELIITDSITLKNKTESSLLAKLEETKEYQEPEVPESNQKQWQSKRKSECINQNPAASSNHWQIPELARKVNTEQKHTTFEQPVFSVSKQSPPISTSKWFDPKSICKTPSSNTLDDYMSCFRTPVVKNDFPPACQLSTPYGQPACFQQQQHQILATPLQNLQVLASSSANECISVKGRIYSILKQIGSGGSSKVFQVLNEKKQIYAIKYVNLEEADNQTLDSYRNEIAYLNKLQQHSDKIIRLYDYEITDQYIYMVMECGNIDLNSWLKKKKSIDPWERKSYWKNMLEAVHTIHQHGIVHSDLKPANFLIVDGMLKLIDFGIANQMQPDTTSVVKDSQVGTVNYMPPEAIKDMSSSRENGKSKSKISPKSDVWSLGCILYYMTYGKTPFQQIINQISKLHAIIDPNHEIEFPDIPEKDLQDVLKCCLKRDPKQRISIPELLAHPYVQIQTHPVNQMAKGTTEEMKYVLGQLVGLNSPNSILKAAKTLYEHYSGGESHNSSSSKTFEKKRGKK

[7] = target: TYK2 JH2 pseudokinase (human) (UniProt P29597); test: KINOMEscan competition binding; conditions: compound 10.0 µM
ULK1 (human) = ULK1 (human) (UniProt O75385); test: KINOMEscan competition binding; conditions: compound 10.0 µM
ULK2 (human) = ULK2 (human) (UniProt Q8IYT8); test: KINOMEscan competition binding; conditions: compound 10.0 µM
EPHA8 (human) = EPHA8 (human) (UniProt P29322); test: KINOMEscan competition binding; conditions: compound 10.0 µM
TTK (human) [8] = target: TTK (human) (UniProt P33981); test: SelectScreen, TR FRET

For `COc1cc(N2CCN(C)CC2)ccc1Nc1ncc2c(n1)N(C1CCCC1)C(C)CC(=O)N2` (stereo unspecified), the kinase still bound, per cent of control [1] was 29%, the kinase still bound, per cent of control [2] was 30% and the kinase still bound, per cent of control (BMP2K (human)) was 19%. For the same molecule, the kinase still bound, per cent of control (CAMKK2 (human)) was 31%, the kinase still bound, per cent of control (CHEK1 (human)) was 14% and the kinase still bound, per cent of control (DAPK3 (human)) was 13%. The kinase still bound, per cent of control (DCLK3 (human)) was 4%, the kinase still bound, per cent of control [3] was 33% and the kinase still bound, per cent of control (FER (human)) was 21%. The kinase still bound, per cent of control (FES (human)) was 26%, the kinase still bound, per cent of control [4] was 30% and the kinase still bound, per cent of control [5] was 26%. For the same molecule, the kinase still bound, per cent of control (FRK (human)) was 7%, the kinase still bound, per cent of control (GAK (human)) was 1% and the kinase still bound, per cent of control (MERTK (human)) was 23%. For the same molecule, the kinase still bound, per cent of control (NEK5 (human)) was 30%, the kinase still bound, per cent of control (NEK9 (human)) was 27% and the kinase still bound, per cent of control (PIP4K2B (human)) was 31%. The kinase still bound, per cent of control (PLK1 (human)) was 2.1%, the kinase still bound, per cent of control (PLK3 (human)) was 11% and the kinase still bound, per cent of control (PTK2 (human)) was 1.9%. The kinase still bound, per cent of control (PTK2B (human)) was 13%, the kinase still bound, per cent of control (RIOK1 (human)) was 32% and the kinase still bound, per cent of control (RPS6KA1 KD2 (human)) was 22%. For the same molecule, the kinase still bound, per cent of control (RPS6KA6 KD2 (human)) was 4.7%, the kinase still bound, per cent of control (SIK1 (human)) was 14% and the kinase still bound, per cent of control (SIK2 (human)) was 26%. For the same molecule, the kinase still bound, per cent of control (SLK (human)) was 3.2%, the kinase still bound, per cent of control (STK10 (human)) was 10% and the kinase still bound, per cent of control (STK33 (human)) was 18%. It also gave a kinase still bound, per cent of control (TNK2 (human)) of 7.4%, a kinase still bound, per cent of control (TTK (human) [6]) of 14% and a kinase still bound, per cent of control [7] of 32%. It also gave a kinase still bound, per cent of control (ULK1 (human)) of 7.8% and a kinase still bound, per cent of control (ULK2 (human)) of 1.2%.
In the case of `CC(C)Oc1cc(N2CCC(O)CC2)ccc1Nc1ncc2c(n1)N(C1CCCC1)CCC(=O)N2C`, the kinase still bound, per cent of control (EPHA8 (human)) is reported as 0%, the kinase still bound, per cent of control (GAK (human)) is reported as 29% and the kinase still bound, per cent of control (PLK1 (human)) is reported as 14%. The Kd (TTK (human) [6]) was 113 nM, the kinase still bound, per cent of control (TTK (human) [6]) was 2.4% and the IC50 (TTK (human) [8]) was 605 nM.

Reference: the kinase profiling compilation of Christmann-Franck et al. (2016)
